Experimental data published in patent US9790235B2, “MK2 inhibitors and uses thereof” (Celgene CAR LLC, priority 2014, dated 2017).
Read-outs that look alike come from different tables or passages of the source.

Legend:
MK2 = MK2 (Homo sapiens (Human), UniProt P49137)
[1] = target: p38α activated, mitogen-activated protein kinase-activated protein kinase 2 (MAPKAP-K2 or MK2) enzyme (Homo sapiens (Human), UniProt P49137); test: MK2 Omnia continuous-read kinase assay for compound potency; format: biochemical; conditions: [MK-2]=0.4 nM, [ATP]=10 μM, [ST3-Sox]=10 μM; read-out: MK2 IC50
Sequence of p38α activated, mitogen-activated protein kinase-activated protein kinase 2 (MAPKAP-K2 or MK2) enzyme (P49137 whole entry): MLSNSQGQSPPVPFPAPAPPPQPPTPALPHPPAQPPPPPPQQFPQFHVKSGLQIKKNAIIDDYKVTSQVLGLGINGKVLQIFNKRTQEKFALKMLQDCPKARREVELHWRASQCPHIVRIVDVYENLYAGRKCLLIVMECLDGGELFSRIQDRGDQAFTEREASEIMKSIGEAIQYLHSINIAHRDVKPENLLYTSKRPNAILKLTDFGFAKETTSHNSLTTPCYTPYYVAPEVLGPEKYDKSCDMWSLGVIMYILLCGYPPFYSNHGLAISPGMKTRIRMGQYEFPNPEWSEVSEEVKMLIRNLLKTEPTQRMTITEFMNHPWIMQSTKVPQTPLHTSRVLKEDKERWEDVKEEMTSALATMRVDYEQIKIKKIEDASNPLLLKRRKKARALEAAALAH
From the text: Mitogen-Activated Protein Kinase-Activated Protein Kinase 2 Omnia® Assay for Compound Potency Assessment:
The protocol below describes a continuous-read kinase assay optimized to measure potency of compounds against p38α activated, mitogen-activated protein kinase-activated protein kinase 2 (MAPKAP-K2 or MK2) enzyme. Further details of this assay are described by Life Technologies, Carlsbad, Calif. on their website at the following URL: http://tools.lifetechnologies.com/content/sfs/manuals/omnia_kinase_assay_man.pdf.
[Reagent] used: • [MK-2]=0.4 nM, • [ATP]=10 μM and • [ST3-Sox]=10 μM (ATP^appKM=10 μM)
Kinase reactions were started with the addition of 45 μL of the ATP-peptide substrate S/T3-Sox mix and monitored every 71 seconds for 120 minutes at λex360/λem485 in a Synergy H4 plate reader from BioTek (Winooski, Vt.) at room temperature.
Background signals from the no enzyme control wells were subtracted from all progress curves. The initial linear portions of the net progress curves were fit according to a linear equation to yield the slope and percentage of inhibition (% inhibition) at each compound concentration. The net progress curves obtained during the first two hours of reactions were also fit according to an ascending single-exponential equation (Eq. 1) to yield kobs values at each compound concentration. Plots of % Inhibition versus inhibitor concentrations were fit according to a dose-response equation (Eq. 2) to generate IC50 and Hill slope values while plots of kobs versus inhibitor concentration were fit according to Equation 3 (Eq. 3) to generate apparent kinact/KI values using the GraphPad PRISM software (Version 6.00; GraphPad San Diego, Calif.).
[formula] where F is the fluorescence intensity from the plate reader, V0 is a constant reflecting the relationship between the instrument readout and product concentration, t is time, e is Euler's number, and kobs is the observed inactivation rate constant.
[formula] where % Inhibition is percentage of inhibition, IC50 is half maximal inhibitory concentration, [I] is the inhibitor concentration, and n is the Hill slope.

[2] = percentage of modified protein after 60 minutes at room temperature, 10-fold excess of compound, MALDI (I-1 to I-50), magnetic bead MALDI (I-51 to I-129)
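Wherever Mass Modification is given: covalent binding read from centroid mass shift of compound-treated versus untreated intact MK2, shift divided by compound molecular weight, giving fraction of total protein bound.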

Sequence of MK2 (P49137 whole entry): as above

Compound	Mass Modification (MK2; [2])	IC50 [1] [nM]	Mass Modification (MK2)
COCCOc1cc(Cl)nc(Nc2ccc3c(ccc4sc5c(c43)NC[C@@H](C)NC5=O)n2)n1 [I-69, (R)-3-((4-chloro-6-(2-methoxyethoxy)pyrimidin-2-yl)amino)-10-methyl-9,10,11,12-tetrahydro-8H-[1,4]diazepino[5′,6′:4,5]thieno[3,2-f]quinolin-8-one]	G (mass modification ≦30%)	< 100	–
C[C@@H]1CNc2c(sc3ccc4nc(Nc5nc(F)cc(O[C@@H]6CCOC6)n5)ccc4c23)C(=O)N1 [I-46, (R)-3-((4-fluoro-6-(((R)-tetrahydrofuran-3-yl)oxy)pyrimidin-2-yl)amino)-10-methyl-9,10,11,12-tetrahydro-8H-[1,4]diazepino[5′,6′:4,5]thieno[3,2-f]quinolin-8-one]	F (mass modification of 31-69%)	–	–
C[C@@H]1CNc2c(sc3ccc4nc(Nc5nc(Cl)ncc5C(=O)NC5CCN(C)CC5)ccc4c23)C(=O)N1 [I-19, (R)-2-chloro-4-((10-methyl-8-oxo-9,10,11,12-tetrahydro-8H-[1,4]diazepino-[5′,6′:4,5]thieno[3,2-f]quinolin-3-yl)amino)-N-(1-methylpiperidin-4-yl)pyrimidine-5-carboxamide]	–	–	G (key: E: mass modification of ≧70%; F: mass modification of 31-69%; G: mass modification ≦30%)
C[C@@H]1CNc2c(sc3ccc4nc(Nc5cc(F)nc(OC6COC6)n5)ccc4c23)C(=O)N1 [I-37, (R)-3-((6-fluoro-2-(oxetan-3-yloxy)pyrimidin-4-yl)amino)-10-methyl-9,10,11,12-tetrahydro-8H-[1,4]diazepino[5′,6′:4,5]thieno[3,2-f]quinolin-8-one]	F (mass modification of 31-69%)	–	–
C[C@@H]1CNc2c(sc3ccc4nc(Oc5nc(Cl)nc(N6CCC(F)(F)C6)n5)ccc4c23)C(=O)N1 [I-77, (R)-3-((4-chloro-6-(3,3-difluoropyrrolidin-1-yl)-1,3,5-triazin-2-yl)oxy)-10-methyl-9,10,11,12-tetrahydro-8H-[1,4]diazepino[5′,6′:4,5]thieno[3,2-f]quinolin-8-one]	E (mass modification of ≧70%)	–	–
C[C@@H]1CNc2c(sc3ccc4nc(Nc5nc(F)cc(OCC6(C)COC6)n5)ccc4c23)C(=O)N1 [I-43, (R)-3-((4-fluoro-6-((3-methyloxetan-3-yl)methoxy)pyrimidin-2-yl)amino)-10-methyl-9,10,11,12-tetrahydro-8H-[1,4]diazepino[5′,6′:4,5]thieno[3,2-f]quinolin-8-one]	G (mass modification ≦30%)	–	–
CC(C)CN(Cc1cnc(Cl)nc1Oc1ccc2c(ccc3sc4c(c32)NC[C@@H](C)NC4=O)n1)CC(C)C [I-88, (R)-3-((2-chloro-5-((diisobutylamino)methyl)pyrimidin-4-yl)oxy)-10-methyl-9,10,11,12-tetrahydro-8H-[1,4]diazepino[5′,6′:4,5]thieno[3,2-f]quinolin-8-one]	F (mass modification of 31-69%)	> 1000	–
C[C@@H]1CNc2c(sc3ccc4nc(Nc5cc(F)nc(OCC6(C)COC6)n5)ccc4c23)C(=O)N1 [I-39, (R)-3-((6-fluoro-2-((3-methyloxetan-3-yl)methoxy)pyrimidin-4-yl)amino)-10-methyl-9,10,11,12-tetrahydro-8H-[1,4]diazepino[5′,6′:4,5]thieno[3,2-f]quinolin-8-one]	G (mass modification ≦30%)	–	–
CCOC(=O)c1cnc(SC)nc1Nc1ccc2c(ccc3sc4c(c32)NC[C@@H](C)NC4=O)n1 [I-12, (R)-ethyl 4-((10-methyl-8-oxo-9,10,11,12-tetrahydro-8H-[1,4]diazepino[5′,6′:4,5]thieno[3,2-f]quinolin-3-yl)amino)-2-(methylthio)pyrimidine-5-carboxylate]	–	501 to 999	G (key: E: mass modification of ≧70%; F: mass modification of 31-69%; G: mass modification ≦30%)
C[C@@H]1CNc2c(sc3ccc4nc(Oc5nc(Cl)ncc5CNC(C)(C)C)ccc4c23)C(=O)N1 [I-102, (R)-3-((5-((tert-butylamino)methyl)-2-chloropyrimidin-4-yl)oxy)-10-methyl-9,10,11,12-tetrahydro-8H-[1,4]diazepino[5′,6′:4,5]thieno[3,2-f]quinolin-8-one]	E (mass modification of ≧70%)	–	–
C[C@@H]1CNc2c(sc3ccc4nc(Oc5nc(Cl)nc6c5CCCC6)ccc4c23)C(=O)N1 [I-109, (R)-3-((2-chloro-5,6,7,8-tetrahydroquinazolin-4-yl)oxy)-10-methyl-9,10,11,12-tetrahydro-8H-[1,4]diazepino[5′,6′:4,5]thieno[3,2-f]quinolin-8-one]	–	101 to 500	–
C[C@@H]1CNc2c(sc3ccc4nc(Nc5cc(F)nc(O[C@@H]6CCN(C)C6)n5)ccc4c23)C(=O)N1 [I-49, (R)-3-((6-fluor-2-(((R)-1-methylpyrrolidin-3-yl)oxy)pyrimidin-4-yl)amino)-10-methyl-9,10,11,12-tetrahydro-8H-[1,4]diazepino[5′,6′:4,5]thieno[3,2-f]quinolin-8-one]	G (mass modification ≦30%)	–	–
C[C@@H]1CNc2c(sc3ccc4nc(Nc5cc(F)nc(OCCN(C)C)n5)ccc4c23)C(=O)N1 [I-32, (R)-3-((2-(2-(dimethylamino)ethoxy)-6-fluoropyrimidin-4-yl)amino)-10-methyl-9,10,11,12-tetrahydro-8H-[1,4]diazepino[5′,6′:4,5]thieno[3,2-f]quinolin-8-one]	F (mass modification of 31-69%)	–	–
C[C@@H]1CNc2c(sc3ccc4nc(Nc5nc(F)cc(O[C@H]6CCOC6)n5)ccc4c23)C(=O)N1 [I-50, (R)-3-((4-fluoro-6-(((S)-tetrahydrofuran-3-yl)oxy)pyrimidin-2-yl)amino)-10-methyl-9,10,11,12-tetrahydro-8H-[1,4]diazepino[5′,6′:4,5]thieno[3,2-f]quinolin-8-one]	F (mass modification of 31-69%)	–	–
C[C@@H]1CNc2c(sc3ccc4nc(Oc5nc(Cl)nc(N6CCCC(F)(F)C6)n5)ccc4c23)C(=O)N1 [I-78, (R)-3-((4-chloro-6-(3,3-difluoropiperidin-1-yl)-1,3,5-triazin-2-yl)oxy)-10-methyl-9,10,11,12-tetrahydro-8H-[1,4]diazepino[5′,6′:4,5]thieno[3,2-f]quinolin-8-one]	E (mass modification of ≧70%)	–	–
C[C@@H]1CNc2c(sc3ccc4nc(Nc5cc(F)nc(O[C@@H]6CCOC6)n5)ccc4c23)C(=O)N1 [I-41, (R)-3-((6-fluor-2-(((R)-tetrahydrofuran-3-yl)oxy)pyrimidin-4-yl)amino)-10-methyl-9,10,11,12-tetrahydro-8H-[1,4]diazepino[5′,6′:4,5]thieno[3,2-f]quinolin-8-one]	G (mass modification ≦30%)	–	–
C[C@@H]1CNc2c(sc3ccc4nc(Nc5cc(F)nc(O[C@H]6CCOC6)n5)ccc4c23)C(=O)N1 [I-40, (R)-3-((6-fluoro-2-(((S)-tetrahydrofuran-3-yl)oxy)pyrimidin-4-yl)amino)-10-methyl-9,10,11,12-tetrahydro-8H-[1,4]diazepino[5′,6′:4,5]thieno[3,2-f]quinolin-8-one]	G (mass modification ≦30%)	–	–
CCOC(=O)c1cnc(Nc2ccc3c(ccc4sc5c(c43)NC[C@@H](C)NC5=O)n2)nc1Cl [I-23, (R)-ethyl 4-chloro-2-((10-methyl-8-oxo-9,10,11,12-tetrahydro-8H-[1, 4]diazepino[5′,6′:4,5]thieno[3,2-f]quinolin-3-yl)amino)pyrimidine-5-carboxylate]	G (mass modification ≦30%)	< 100	–
C[C@@H]1CNc2c(sc3ccc4nc(Nc5cc(F)nc(F)c5)ccc4c23)C(=O)N1 [I-6, (R)-3-((2,6-difluoropyridin-4-yl)amino)-10-methyl-9,10,11,12-tetrahydro-8H-[1,4]diazepino[5′,6′:4,5]thieno[3,2-f]quinolin-8-one]	G (mass modification ≦30%)	–	–
